In patent publication US10070648B2, “Photodynamic insecticides” (ROSALIND FRANKLIN UNIVERSITY OF MEDICINE AND SCIENCE, priority 2016, dated 2018):
Where two headings read alike, the source gives them in different places.

Columns and labels:
Aedes mosquito larvae = test: PDI assay of light-activated larvicidal activity (larva mobility); type: in vivo, A. aegypti and A. albopictus; conditions: for 2nd instar larvicidal activity (larva immobilization, % of dark control) compared with positive controls RB and CY: 1/1000 dilution of stock, white light up to 7 hours; for EC50: 2nd instar larvae, estimated from concentration vs. larvicidal activity curve, 16 hours PS exposure in dark, then white light, read-out: EC50 for PDT-mediated 2nd-instar larvicidal activities
Source text: 2nd to 4th instar larvae of A. aegypti and A. albopictus (or Aedes mosquitoes in brief) were used in the experiments, as they are known vectors of Zika fever and other viral diseases. Colonies of both species were reared to provide the larvae of all instars under the approved conditions of a humidified “warm room” (˜28 C, ˜80% relative humidity).
The PDI assay to determine the larvicidal activities of the PS in Table 1 was based on procedures developed for mammalian and protozoa cells with modifications for mosquito larvae. Briefly, each PS was tested in 3-4 concentrations in 10-fold serial dilutions, starting with a 1/100 dilution of the stock solution (see Table 1 for the PS stock concentrations) as the highest. The solvent (DMSO) at these PS concentrations was ≤1%, which was pre-tested alone and shown to have no larvicidal activity. Larvae were PS-exposed (and not exposed as a control) in groups of 20 per 5 mL of water per well of a 6-well plate, in duplicate. All plates were foil-wrapped for overnight incubation under dark conditions in the “warm room.” After 16 hours of PS exposure, one of the duplicate 6-well plates was un-wrapped and the lid removed for exposure from the top with white light from a fluorescent tube-containing box (1-2 J/cm^2). The remaining 6-well plate of the duplicate was exposed under exactly the same conditions, but remained foil-wrapped as the dark control. Larvae were checked for mobility and readings recorded hourly for up to 7 hours. […] Each condition was repeated 4-5 times in independent experiments.

[1] = test system: Culex pipiens quinquefasciatus 4th instar larvae; test: Uptake and photo-inactivation in mosquito larvae kept in dye-containing water; type: in vivo
Protocol: Panel [A]: Culex pipiens quinquefasciatus 4th instar larvae exposed to rose Bengal (10 μg/mL) (˜20 larvae/5 mL water/well in 6-well plate) in dark for ˜24 hours followed by exposure to white light for ˜6 hrs at ˜2500 lux. Panels [B] and [C]: Phlebotomus duboscqi female (B) and male (C) adult flies (˜20 flies/screened paper cup) fed with 5% sucrose solution and 500 μL of 5 mg/mL rose bengal in a cotton ball for ˜20 hrs in the dark followed by exposure to ˜2500 lux of white light for 3 hrs. Duplicate samples were prepared and kept in the dark as controls. Rose bengal was taken up by the mosquito larvae and sand flies of both sexes.
Culex pipiens quinquefasciatus 4th instar larvae were exposed to rose Bengal or cyanosine (10 μg/mL) (˜20 larvae/5 mL water/well in 6-well plate) in the dark for ˜24 hours followed by exposure to white light for ˜6 hrs at ˜2500 lux; Phlebotomus duboscqi female (FIG. 1, panel B) and male (FIG. 1, panel C) adult flies (˜20 flies/screened paper cup) fed with 5% sucrose solution and 500 μL of 5 mg/ml rose bengal in a cotton ball for ˜20 hrs in the dark followed by exposure to ˜2500 lux of white light for 3 hrs. Duplicate samples were prepared and kept in the dark as controls.
The susceptibility of PS-sensitized insects to white light illumination varied with the species and the PSs used. […]

[2] = test system: Aedes albopictus clone C6/36 (ATCC CRL-1660); test: Uptake of PS by mosquito cells in vitro and photo-inactivation; conditions: for state of sensitized cells after light exposure: white light, 4 hrs
Protocol: (§1) The insect cells were exposed to both dyes overnight and illuminated with white light under conditions similar to those described for mammalian and Leishmania cells. Images were captured first under differential interference (DIF) [A] and then under the filter sets for DAPI and Texas red [B]. [C] Chemical structure of cyanosione and rose Bengal.
as §1, with “Uptake of PS was assessed in insect cells, specifically Aedes albopictus clone C6/36 (ATCC CRL-1660). The” for “The”, “cells. […]” for “cells.”

[3] = 1/10000 dilution of the stocks, light-activated

| Molecule | 2nd instar larvicidal activity (larva immobilization, % of dark control) compared with positive controls RB and CY (Aedes mosquito larvae) | effect on the other instars (3rd, 4th) (Aedes mosquito larvae; [3]) | phototoxicity to mosquito larvae ([1]; 10 μg/mL, dark ~24 hours, then white light ~6 hrs at ~2500 lux) | difference of sensitized larvae between dark and light conditions ([1]; motility as viability readout) | state of sensitized cells kept in the dark ([2]; dark) | state of sensitized cells after light exposure [2] | state of sensitized cells after light exposure ([2]; listed as RB) | viability of 2nd to 4th instar larvae (Aedes mosquito larvae; [3]) | EC50 (Aedes mosquito larvae; Aedes) [nM] | EC50 (Aedes mosquito larvae) [nM] |
| --- | --- | --- | --- | --- | --- | --- | --- | --- | --- | --- |
| Meso- Tetraphenylpor- phine disulphonic acid dihydrochoride [TPPS2] | most similar to RB | unscathed |  |  |  |  |  |  |  |  |
| O=C([O-])c1c(Cl)c(Cl)c(Cl)c(Cl)c1-c1c2cc(I)c(=O)c(I)c-2oc2c(I)c([O-])c(I)cc12.[Na+].[Na+] [Rose Bengal] |  |  | especially evident | significant | remained adherent and intact | cellular disintegration | became disintegrated | reduced the viability of all instars to a variable extent | 250 |  |
| Meso-tetra(4- n,n,n- trimethylanili- nium) porphine tetrachloride [TMAP] | most similar to RB | unscathed |  |  |  |  |  |  |  | 100 |
